Measured values reported in patent US20220401514A1, “ANTIMICROBIAL, BACTERIOPHAGE-DERIVED POLYPEPTIDES AND THEIR USE AGAINST GRAM-NEGATIVE AND ACID-FAST BACTERIA” (CONTRAFECT CORPORATION, priority 2019, published 2022).
Where two headings read alike, the source gives them in different places.

Assays:
[1] = test system: carbapenem-resistant P. aeruginosa clinical isolate CFS-1292; assay: MIC by modified CLSI broth microdilution against P. aeruginosa CFS-1292 (CAA, CAA + human serum); type: cell-based, Pseudomonas aeruginosa
[2] = test system: Pseudomonas aeruginosa; assay: microbe, parasite or virus in culture; type: cell-based; conditions: for MIC: CAA without human serum
[3] = test system: Enterobacter cloacae; assay: microbe, parasite or virus in culture; type: cell-based
Outline: (§1)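 Human serum was added to CAA broth for these MIC determinations with peptides.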

[4] = test system: Escherichia coli; assay: microbe, parasite or virus in culture; type: cell-based
Outline: as §1

[5] = test system: Klebsiella pneumoniae; type: cell-based
Experimental: (§2) Determination of Minimal Inhibitory Concentrations (MIC).
Additional MIC testing was performed for several peptides against the ESKAPE pathogens Escherichia coli, Enterobacter cloacae, Klebsiella pneumoniae, and Acinetobacter baumannii, in CAA supplemented with human serum (Table D).

[6] = test system: Acinetobacter baumannii; assay: microbe, parasite or virus in culture; type: cell-based
[7] = test system: Pseudomonas aeruginosa, Escherichia coli, Enterobacter cloacae, Klebsiella pneumoniae, and Acinetobacter baumannii; assay: MIC against a range of Gram-negative organisms (statements covering several species); type: cell-based; conditions: Tables 40-44 isolates
Outline: as §1

[8] = test system: carbapenem-resistant bacterial strains; assay: organism not typed; type: cell-based
Excerpt: as §2

[9] = test system: M. smegmatis; assay: 45 hr MIC against M. smegmatis (NTM), Mueller Hinton broth; type: cell-based, Mycobacterium smegmatis
[10] = test system: M. fortuitum; assay: 45 hr MIC against M. fortuitum (NTM); type: cell-based, Mycobacterium fortuitum; conditions: M. fortuitum subsp. Fortuitum da Costa Cruz. ATCC 6841
[11] = test system: M. scrofulaceum; assay: 45 hr MIC against M. scrofulaceum (NTM); type: cell-based, Mycobacterium scrofulaceum; conditions: M. scrofulaceum Prissick and Masson ATCC 19981
[12] = test system: M. intracellulare; assay: 45 hr MIC against M. intracellulare (NTM); type: cell-based, Mycobacterium intracellulare; conditions: M. intracellulare (Cuttino and McCabe) Runyon ATCC 13950
[13] = test system: P. aeruginosa strain CFS-1292; assay: MIC in presence and absence of NaCl (140 mM); type: cell-based, Pseudomonas aeruginosa
Experimental: Certain Chp peptides were evaluated over a range of physiological NaCl levels and pH values, and were further evaluated for activity in the presence of various divalent cations.

[14] = test system: P. aeruginosa strain CFS-1292; assay: MIC at pH 6, pH 7 and pH 8; type: cell-based, Pseudomonas aeruginosa
Experimental: The Chp peptides were further evaluated at varying pH levels. The MIC values were determined at pH 6, pH 7, and pH 8 for 18 different Chp peptides against P. aeruginosa strain CFS-1292. […]

[15] = test system: P. aeruginosa strain CFS-1292; assay: MIC in presence of divalent cations (calcium chloride, magnesium sulfate); type: cell-based, Pseudomonas aeruginosa
Experimental: Next, Chp peptides were evaluated in the presence of different divalent cations. […]; (2) in the presence of 2 mM calcium chloride alone; (3) in the presence of 1 mM magnesium sulfate alone; and (4) in the presence of both 2 mM calcium chloride and 1 mM magnesium sulfate. […]

[16] = test system: P. aeruginosa strain CFS-1292; assay: MIC in presence and absence of Survanta pulmonary surfactant; type: cell-based, Pseudomonas aeruginosa
[17] = test system: P. aeruginosa strain CFS-1292; assay: MIC in presence of mouse, rat, rabbit and human serum ([…] each); type: cell-based, Pseudomonas aeruginosa; conditions: P. aeruginosa CFS-1292
Experimental: The activity of several Chp peptides against P. aeruginosa strain CFS-1292 in animal serum was evaluated. […] Rat, mouse, and rabbit serum were all obtained from pooled gender samples.

[18] = test system: M. kansasii Hauduroy ATCC 12478; assay: 45 hr MIC against M. kansasii (NTM), Mueller Hinton broth; type: cell-based, Mycobacterium kansasii
[19] = test system: Mycobacterium tuberculosis strains
Experimental: MIC values for various Chp peptides were determined using the CLSI method for broth microdilution in 96-well microtiter format.
Next, MIC values for various Chp peptides were determined using the CLSI method above for broth microdilution in 96-well microtiter format for two different Mycobacterium tuberculosis strains. The MIC was determined as explained above for the NTM strains.

[20] = test system: Klebsiella pneumoniae; assay: microbe, parasite or virus in culture; type: cell-based; conditions: CAA without human serum
[21] = P. aeruginosa isolates (n per peptide in table)
[22] = E. cloacae isolates (n per peptide in table)
[23] = E. coli isolates (n per peptide in table)
[24] = K. pneumoniae isolates (n per peptide in table)
[25] = A. baumannii isolates (n per peptide in table)

“MARRYRLSRRRSRRLFSRTALRMHRRNRLRRIMRGGIRF [Chp4]” was tested. Which “MIC (μg/mL) against CFS-1292 in 100% CAA (1st run/2nd run)” value ([1]; 100% CAA, 1st run or single value) did it give?
The value was 0.5 µg/mL.

What about the “MIC (μg/mL) against CFS-1292 in CAA + […] human serum” value ([1]; CAA + […] human serum) of the same sequence?
Its value is 0.5 µg/mL.

What about the MIC ([2]; P. aeruginosa 453 (Human clinical isolate, HSS), RSC 1292) of the same sequence?
The MIC was 4 µg/mL.

What about the MIC ([2]; P. aeruginosa (ATCC 14213, human hip wound), RSC 1111) of the same sequence?
The MIC was 4 µg/mL.

And the MIC ([2]; P. aeruginosa (ATCC 15152, abscess in middle ear), RSC 1110)?
The MIC was 4 µg/mL.

What about the MIC ([2]; P. aeruginosa (ATCC 15692, infected wound), RSC 489) of the same sequence?
The MIC was 4 µg/mL.

What about the MIC ([2]; P. aeruginosa (ATCC 15692, infected wound), RSC 1115) of the same sequence?
Its MIC is 4 µg/mL.

And the MIC ([2]; P. aeruginosa (ATCC 17646, human liver abscess), RSC 1109)?
The MIC was 4 µg/mL.

And the MIC ([2]; P. aeruginosa (ATCC 19142, tracheobronchial secretion), RSC 1108)?
The MIC was 4 µg/mL.

And the MIC ([2]; P. aeruginosa (ATCC 25102, bacteriophage host), RSC 1114)?
Its MIC is 4 µg/mL.

What about the MIC ([2]; P. aeruginosa (ATCC 27853, MIC control strain), RSC 815) of the same sequence?
Its MIC is 4 µg/mL.

And the MIC ([2]; P. aeruginosa (ATCC BAA-27, lab strain), RSC 1113)?
The MIC was 4 µg/mL.

And the MIC ([2]; P. aeruginosa (PAO1, alternate source, HER1018), RSC 490)?
The MIC was 4 µg/mL.

And the MIC50 [2, 21]?
The MIC50 was 1 µg/mL.

What about the MIC100 [2, 21] of the same sequence?
Its MIC100 is 1 µg/mL.

What about the “MIC Range” value [2, 21] of the same sequence?
Its value is 0.5 to 1 µg/mL.

And the MIC50 [3, 22]?
Its MIC50 is 0.5 µg/mL.

And the MIC100 [3, 22]?
Its MIC100 is 1 µg/mL.

And the “MIC Range” value [3, 22]?
Its value is 0.25 to 2 µg/mL.

And the MIC ([3]; Enterobacter cloacae (ATCC 13047, MIC control strain), RSC 1240, CAA without human serum)?
The MIC was 4 µg/mL.

And the MIC ([3]; Enterobacter cloacae ATCC 13047, CAA supplemented with human serum)?
Its MIC is 1 µg/mL.

What about the MIC ([4]; E. coli (ATCC 25922, MIC control strain), RSC 813, CAA without human serum) of the same sequence?
Its MIC is 2 µg/mL.

And the MIC ([4]; E. coli (HM346, colon, Crohn's disease), RSC 1212, CAA without human serum)?
The MIC was 4 µg/mL.

And the MIC50 [4, 23]?
Its MIC50 is 1 µg/mL.

And the MIC100 [4, 23]?
Its MIC100 is 2 µg/mL.

And the “MIC Range” value [4, 23]?
Its value is 0.5 to 4 µg/mL.

What about the MIC ([4]; Escherichia coli ATCC 25922, CAA supplemented with human serum) of the same sequence?
The MIC was 0.5 µg/mL.

And the MIC50 [5, 24]?
The MIC50 was 1 µg/mL.

What about the MIC100 [5, 24] of the same sequence?
Its MIC100 is 1 µg/mL.

What about the “MIC Range” value [5, 24] of the same sequence?
The value was 0.5 to 1 µg/mL.

And the MIC ([5]; Klebsiella pneumoniae HM-44, CAA supplemented with human serum)?
The MIC was 0.25 µg/mL.

And the MIC50 [6, 25]?
The MIC50 was 0.5 µg/mL.

What about the MIC100 [6, 25] of the same sequence?
Its MIC100 is 1 µg/mL.

And the “MIC Range” value [6, 25]?
Its value is 0.25 to 1 µg/mL.

And the MIC ([6]; Acinetobacter baumannii (clinical isolate HSS), RSC 30, CAA without human serum)?
Its MIC is 4 µg/mL.

What about the MIC ([6]; Acinetobacter baumannii (clinical isolate HSS), RSC 32, CAA without human serum) of the same sequence?
The MIC was 4 µg/mL.

What about the MIC ([6]; Acinetobacter baumannii ATCC BAA 747, CAA supplemented with human serum) of the same sequence?
Its MIC is 0.125 µg/mL.

And the “activity (good = MIC100 of ≤4) against all of P. aeruginosa, K. pneumoniae, A. baumannii, E. cloacae, and E. coli” value [7]?
The value was “good activity”.

And the MIC ([8]; carbapenem-resistant isolate PA19)?
The MIC was 0.5 µg/mL.

What about the MIC ([8]; carbapenem-resistant isolate PA20) of the same sequence?
Its MIC is 1 µg/mL.

What about the MIC ([8]; carbapenem-resistant isolate PA21) of the same sequence?
The MIC was 1 µg/mL.

What about the MIC ([8]; carbapenem-resistant isolate PA22) of the same sequence?
Its MIC is 1 µg/mL.

What about the MIC ([8]; carbapenem-resistant isolate PA23) of the same sequence?
Its MIC is 1 µg/mL.

And the MIC ([8]; carbapenem-resistant isolate PA24)?
The MIC was 1 µg/mL.

What about the MIC ([8]; carbapenem-resistant isolate WLC-452) of the same sequence?
Its MIC is 0.5 µg/mL.

What about the “45 hr MIC” value ([9]; M. smegmatis MC^2 155, Run #1) of the same sequence?
Its value is 4 µg/mL.

What about the “45 hr MIC” value ([9]; M. smegmatis MC^2 155, Run #2) of the same sequence?
Its value is 4 µg/mL.

And the “45 hr MIC” value [10]?
Its value is 4 µg/mL.

And the “45 hr MIC” value [11]?
Its value is 2 µg/mL.

And the “45 hr MIC” value [12]?
Its value is 1 µg/mL.

And the “Fold change in MIC” value ([13]; CAA + 140 mM NaCl versus CAA without added NaCl)?
Its value is 1.

And the MIC, CAA + 140 mM NaCl ([13]; CAA + 140 mM NaCl, P. aeruginosa CFS-1292)?
Its MIC, CAA + 140 mM NaCl is 0.5 µg/mL.

And the MIC, CAA (no added NaCl) ([13]; CAA, no added NaCl, P. aeruginosa CFS-1292)?
Its MIC, CAA (no added NaCl) is 0.5 µg/mL.

And the MIC ([14]; CAA media (pH 7))?
The MIC was 0.5 µg/mL.

And the MIC ([14]; pH 6)?
Its MIC is 0.25 µg/mL.

What about the MIC ([14]; pH 7) of the same sequence?
Its MIC is 0.5 µg/mL.

What about the MIC ([14]; pH 8) of the same sequence?
The MIC was 1 µg/mL.

What about the MIC ([15]; CAA media + 1 mM MgSO4) of the same sequence?
Its MIC is 0.5 µg/mL.

What about the MIC ([15]; CAA media + 2 mM CaCl2) of the same sequence?
The MIC was 1 µg/mL.

What about the MIC ([15]; CAA media + + 1 mM MgSO4) of the same sequence?
The MIC was 0.125 µg/mL.

What about the MIC ([15]; CAA media alone) of the same sequence?
The MIC was 0.5 µg/mL.

What about the MIC ([16]; CAA media + 0.19 mg/mL Survanta) of the same sequence?
Its MIC is 0.5 µg/mL.

And the MIC ([16]; CAA media + […] Survanta)?
Its MIC is 0.5 µg/mL.

And the MIC ([16]; CAA media alone)?
Its MIC is 0.5 µg/mL.

What about the “MIC BALB/C Mouse Serum” value ([17]; BALB/C mouse serum […]) of the same sequence?
Its value is 32 µg/mL.

And the “MIC CAA” value ([17]; CAA)?
The value was 0.5 µg/mL.

What about the “MIC New Zealand White Rabbit Serum” value ([17]; New Zealand White rabbit serum […]) of the same sequence?
Its value is 2 µg/mL.

And the “MIC Sprague Dawley Rat Serum” value ([17]; Sprague Dawley rat serum […])?
The value was 2 µg/mL.

And the “MIC Human Serum” value ([17]; human serum […])?
Its value is 0.5 µg/mL.

And the “45 hr MIC” value [18]?
Its value is greater than 0.125 µg/mL.

What about the MIC ([19]; Mycobacterium tuberculosis (Zopf) Lehmann and Neumann ATCC 25177) of the same sequence?
Its MIC is 16 µg/mL.

And the MIC ([19]; Mycobacterium tuberculosis (Zopf) Lehmann and Neumann ATCC 35817)?
The MIC was 8 µg/mL.

And the MIC ([20]; Klebsiella pneumoniae (ATCC 10031, MIC control strain), RSC 814)?
Its MIC is 4 µg/mL.

And the MIC ([20]; Klebsiella pneumoniae (g2-3 HM35K), RSC 1138)?
The MIC was 4 µg/mL.

And the MIC ([20]; Klebsiella sp. (HM-44; colon, Crohn's disease), RSC 1139)?
The MIC was 4 µg/mL.

And the MIC ([20]; Klebsiella spp. (HM-223; gut of Crohn's disease patient), RSC 1131)?
Its MIC is 4 µg/mL.
